Test results: ChEMBL document CHEMBL1150901, “Enhancement of NO production in activated macrophages in vivo by an antimalarial crude drug, Dichroa febrifuga” (J Nat Prod, 1998)
Calls of active or inactive are those of the source. No cut-off for these calls is given here.

Legend:
[1] = test system: Macrophage; assay: […] of LPS-induced NO production in BCG-treated ICR mouse macrophages at 1 mg/kg/day, po administered for 3 days before BCG immunization measured after 24 hrs of LPS challenge by Griess reagent method; type: functional; design: scale not given: the % may be the effect or the level left
[2] = Activation of LPS-induced NO production in BCG-treated ICR mouse macrophages at 50 to 1000 mg/kg/day, po administered for 3 days before BCG immunization measured after 24 hrs of LPS challenge by Griess reagent method; type: functional, organism-based; details: Macrophage
[3] = test system: Mus musculus; assay: Antiinflammatory activity against po dosed ICR mouse assessed as number of peritoneal exudate cells; type: functional
[4] = test system: Macrophage; assay: Increase in LPS-induced NO production in ICR mouse at 1 mg/kg/day, po 0 to 2 days administered before BCG immunization measured after 24 hrs of LPS challenge by Griess reagent method; type: functional, organism-based
[5] = test system: Macrophage; assay: Increase in LPS-induced NO production in ICR mouse at 1 mg/kg/day, po 0 to 2 days administered after BCG immunization measured after 24 hrs of LPS challenge by Griess reagent method; type: functional, organism-based
[6] = Activation of LPS-induced NO production in BCG-treated ICR mouse macrophages at 1 mg/kg/day, po administered for 3 days before BCG immunization measured after 72 hrs of LPS challenge by Griess reagent method; type: functional, organism-based; details: Macrophage
[7] = test system: Macrophage; assay: Activation of NO production in BCG-treated ICR mouse macrophages at 1 mg/kg/day, po administered for 3 days before BCG immunization measured after 72 hrs of LPS challenge by Griess reagent method; type: functional, organism-based
[8] = Cytotoxicity against LPS-stimulated ICR mouse macrophages assessed as cell viability at 1 mg/kg/day after 72 hrs of LPS challenge by MTT assay; type: organism-based, Macrophage; details: read-out: Activity
[9] = Cytotoxicity against ICR mouse macrophages assessed as cell viability at 1 mg/kg/day after 72 hrs by MTT assay; type: organism-based, Macrophage; details: read-out: Activity
[10] = Activation of LPS-induced NO production in BCG-treated ICR mouse macrophages at 5 mg/kg/day, po administered for 3 days before BCG immunization measured after 24 hrs of LPS challenge by Griess reagent method; type: functional, organism-based; details: Macrophage
[11] = test system: Mus musculus; assay: Toxicity in ICR mouse assessed as occurrence of diarrhea at 5 mg/kg/day, po; type: organism-based; design: route oral; details: in vivo

Row | SMILES | Activity [1] [%] | Activity [2] | Activity [3] | Activity [4] | Activity [5] | Activity [6] | Activity [7] | viability at 72 h [8] [%] | viability at 72 h [9] [%] | Activity [10] | Activity [11]
1 | C[C@@H]1CC[C@H]2[C@@H](C)C(=O)O[C@@H]3O[C@@]4(C)CC[C@@H]1[C@]32OO4 [ARTEMISININ] | 23 |  |  |  |  |  |  |  |  |  | 
2 | O=C(C[C@@H]1NCCC[C@H]1O)Cn1cnc2ccccc2c1=O [FEBRIFUGINE] |  | Dose-dependent effect | 378000000 | Active | Active | Active | inactive | 10 | > 90 | inactive | Not Active
